The target in the assay is T1, FXR (Homo sapiens, UniProt Q96RI1).
T1 construct: expressed in transfected cells; host or cells: CV-1 cells
T1 sequence (Q96RI1 1-486): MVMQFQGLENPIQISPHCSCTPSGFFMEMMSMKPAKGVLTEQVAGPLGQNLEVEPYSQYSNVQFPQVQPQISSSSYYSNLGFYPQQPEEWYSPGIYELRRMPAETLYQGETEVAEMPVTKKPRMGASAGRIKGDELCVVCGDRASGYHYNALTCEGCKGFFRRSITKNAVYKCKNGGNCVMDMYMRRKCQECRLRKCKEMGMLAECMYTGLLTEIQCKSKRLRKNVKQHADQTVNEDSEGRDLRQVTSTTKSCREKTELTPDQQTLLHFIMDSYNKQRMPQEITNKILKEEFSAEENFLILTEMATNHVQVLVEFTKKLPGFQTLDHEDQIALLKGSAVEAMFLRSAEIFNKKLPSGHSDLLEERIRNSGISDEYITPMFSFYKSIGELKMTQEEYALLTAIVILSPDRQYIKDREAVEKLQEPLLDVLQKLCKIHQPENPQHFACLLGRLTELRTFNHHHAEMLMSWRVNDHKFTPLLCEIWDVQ
T1 sequence (P19793 1-462 partner): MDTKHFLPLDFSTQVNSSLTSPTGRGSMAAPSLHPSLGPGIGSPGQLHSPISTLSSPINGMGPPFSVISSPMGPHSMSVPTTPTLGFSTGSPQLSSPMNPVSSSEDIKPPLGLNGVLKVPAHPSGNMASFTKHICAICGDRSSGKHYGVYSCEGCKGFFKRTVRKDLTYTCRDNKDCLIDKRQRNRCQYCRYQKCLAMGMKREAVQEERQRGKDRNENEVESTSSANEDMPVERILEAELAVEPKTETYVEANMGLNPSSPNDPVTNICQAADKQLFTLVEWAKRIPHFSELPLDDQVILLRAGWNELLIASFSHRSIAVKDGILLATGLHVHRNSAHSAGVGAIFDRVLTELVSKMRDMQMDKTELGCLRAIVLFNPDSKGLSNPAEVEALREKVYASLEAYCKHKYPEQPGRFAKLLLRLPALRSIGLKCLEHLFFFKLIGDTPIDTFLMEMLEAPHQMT
Nature of the assay: In Vitro FXR Assay (TK): TK-ECRE-luc reporter in transfected CV-1 cells. Type of assay: cell-based. The conditions noted are these: CV-1 cells transfected with hFXR, hRXR, 18 h incubation, luminescence. The procedure: Example B-2: In Vitro FXR Assay (TK)
CV-1 cells were seeded at a density of 2,000,000 cells in a T175 flask with DMEM+10% charcoal double-stripped FBS and incubated at 37° C. in 5% CO2 for 18 h (O/N).
After 18 h of incubation, the medium in the T175 flask was changed with fresh DMEM+10% charcoal super-stripped serum. In a polypropylene tube, 2500 μL OptiMEM (Life Technologies, Cat #31985-062) was combined with expression plasmids for hFXR, hRXR, TK-ECRE-luc and pCMX-YFP. The tube was then briefly vortexed and incubated at room temperature for 5 minutes. Transfection reagent (X-tremeGENE HP from Roche, Cat #06 366 236 001) was added to the OptiMEM/plasmid mixture vortexed and incubated at room temperature for 20 minutes. Following incubation, the transfection reagent/DNA mixture complex was added to cells in the T175 flask and the cells were incubated at 37° C. in 5% CO2 for 18 h (O/N).
Compounds were serially diluted in DMSO and added to transfected CV-1 cells. The cells were then incubated for 18 hrs. The next day cells were lysed and examined for luminescence.
With `COC(=O)/C=C/c1cccc(N(Cc2ccc(-c3ccc(OC)c(C)c3)cc2)C(=O)c2ccncc2)c1` [62.1, (E)-Methyl 3-(3-(N-((4′-methoxy-3′-methyl-[1,1′-biphenyl]-4-yl)methyl)isonicotinamido)phenyl)acrylate], the EC50 is 1000 to 10000 nM.

Consider `CN(C)c1ccc(-c2ccc(CN(C(=O)C3CCCCC3)c3cccc(/C=C/C(=O)OC4CCCCC4)c3)cc2)cc1` [86.1, (E)-Cyclohexyl 3-(3-(N-((4′-(dimethylamino)-[1,1′-biphenyl]-4-yl)methyl)cyclohexanecarboxamido)phenyl) acrylate], for which the concentration for a half-maximal effect (EC50) is above 10000 nM.

For the molecule `COC(=O)/C=C/c1cccc(N(Cc2ccc(-c3ccc(OC)c(C)c3)cc2)C(=O)C2CCN(C(=O)OC(C)(C)C)CC2)c1` [62.5, (E)-tert-Butyl 4-(((4′-methoxy-3′-methyl-[1,1′-biphenyl]-4-yl)methyl)(3-(3-methoxy-3-oxoprop-1-en-1-yl)phenyl)carbamoyl)piperidine-1-carboxylate], the EC50 lay in the range of 1000 to 10000 nM.

`COC(=O)/C=C/c1cccc(N(Cc2ccc(-c3ccc(N(C)C)cc3)cc2)C(=O)C(C)(C)CCl)c1` [13.24, (E)-Methyl 3-(3-(3-chloro-N-((4′-(dimethylamino)-[1,1′-biphenyl]-4-yl)methyl)-2,2-dimethylpropanamido)phenyl)acrylate] displayed a 50% effective concentration (EC50) of at most 1000 nM.

`COC(=O)/C=C/c1cccc(N(Cc2ccc(-c3ccc(C(=O)OC)cc3)cc2)C(=O)C2CCCCC2)c1` [62.3, (E)-Methyl 4′-((N-(3-(3-methoxy-3-oxoprop-1-en-1-yl)phenyl)cyclohexanecarboxamido)methyl)-[1,1′-biphenyl]-4-carboxylate] displayed an EC50 of 1000 to 10000 nM.

As to `COC(=O)/C=C/c1cccc(N(Cc2ccc(-c3ccc4c(C)nsc4c3)cc2)C(=O)C2CCCCC2)c1` [75.19, (E)-Methyl 3-(3-(N-(4-(3-methylbenzo[d]isothiazol-6-yl)benzyl)cyclohexanecarboxamido)phenyl) acrylate], the EC50 is at most 1000 nM.

On to `COC(=O)/C=C/c1cccc(N(Cc2ccc(-c3ccc(N(C)C)cc3)cc2)C(=O)C2CC[S+]([O-])CC2)c1` (centres unmarked) [13.19, (E)-Methyl 3-(3-(N-((4′-(dimethylamino)-[1,1′-biphenyl]-4-yl)methyl)-1-oxidotetrahydro-2H-thiopyran-4-carboxamido)phenyl)acrylate], for which the EC50 lay in the range of 1000 to 10000 nM.

The molecule `COC(=O)/C=C/c1cccc(N(Cc2ccc(-c3ccc(N(C)C)cc3)cc2)C(=O)c2ccc(O)cc2)c1` [13.21, (E)-Methyl 3-(3-(N-((4′-(dimethylamino)-[1,1′-biphenyl]-4-yl)methyl)-4-hydroxybenzamido)phenyl)acrylate] had an EC50 of at most 1000 nM.

Regarding `COC(=O)/C=C/c1cccc(N(Cc2ccc(-c3ccc(N(C)C)cc3)cc2)C(=O)[C@@H]2CCCC[C@@H]2O)c1` (relative stereo) [13.26, cis-(E)-Methyl 3-(3-(N-((4′-(dimethylamino)-[1,1′-biphenyl]-4-yl)methyl)-2-hydroxycyclohexanecarboxamido)phenyl)acrylate], the EC50 lay within 1000 to 10000 nM.

In the case of `COC(=O)/C=C/c1cccc(N(Cc2ccc(NC(=O)c3ccccc3)cc2)C(=O)C2CCCCC2)c1` [compound 100, (E)-Methyl 3-(3-(N-(4-benzamidobenzyl)cyclohexanecarboxamido)phenyl)acrylate], the EC50 was in the range of 1000 to 10000 nM.

Molecule `COCCOC(=O)/C=C/c1cccc(N(Cc2ccc(-c3ccc(N(C)C)cc3)cc2)C(=O)C2CCCCC2)c1` [86.3, (E)-2-Methoxyethyl 3-(3-(N-((4′-(dimethylamino)-[1,1′-biphenyl]-4-yl)methyl)cyclohexanecarboxamido)phenyl) acrylate] came in with an EC50 of 1000 to 10000 nM.

`CCc1cc(-c2ccc(N(C)C)cc2)ccc1CN(C(=O)C1CCCCC1)c1cccc(/C=C/C(=O)OC)c1` [62.14, (E)-Methyl 3-(3-(N-((4′-(dimethylamino)-3-ethyl-[1,1′-biphenyl]-4-yl)methyl)cyclohexanecarboxamido)phenyl) acrylate]: the EC50 was at most 1000 nM.

In the case of `COC(=O)/C=C/c1cccc(N(Cc2ccc(-c3ccc(N(C)C)cc3)cc2)C(=O)C2CCC(SC)CC2)c1` (centres unmarked) [13.13, (E)-Methyl 3-(3-(N-((4′-(dimethylamino)-[1,1′-biphenyl]-4-yl)methyl)-4-(methylthio)cyclohexanecarboxamido)phenyl)acrylate], the EC50 lay in the range of 1000 to 10000 nM.

In turn, `CCc1cc(CN(C(=O)C2CCCCC2)c2cccc(/C=C/C(=O)OC)c2)ccc1-c1ccc(N(C)C)cc1` [62.13, (E)-Methyl 3-(3-(N-((4′-(dimethylamino)-2-ethyl-[1,1′-biphenyl]-4-yl)methyl)cyclohexanecarboxamido)phenyl) acrylate] had an EC50 of 1000 to 10000 nM.

With `COC(=O)/C=C/c1cccc(N(Cc2ccc(-c3ccc4sncc4c3)cc2)C(=O)C2CCCCC2)c1` [75.17, (E)-Methyl 3-(3-(N-(4-(benzo[d]isothiazol-5-yl)benzyl)cyclohexanecarboxamido)phenyl) acrylate], the EC50 was in the range of 1000 to 10000 nM.

The molecule `COC(=O)/C=C/c1cccc(N(Cc2ccc(-c3ccc(N(C)C)cc3)cc2)C(=O)c2ccccc2OC)c1` [13.7, (E)-Methyl 3-(3-(N-((4′-(dimethylamino)-[1,1′-biphenyl]-4-yl)methyl)-2-methoxybenzamido)phenyl)acrylate] yielded a concentration giving a half-maximal response (EC50) of at most 1000 nM.

With `COC(=O)/C=C/c1cccc(N(Cc2ccc(-c3ccc(OC)c(C)c3)cc2)C(=O)C2CCN(C(C)=O)CC2)c1` [62.16, (E)-Methyl 3-(3-(1-acetyl-N-((4′-methoxy-3′-methyl-[1,1′-biphenyl]-4-yl)methyl)piperidine-4-carboxamido)phenyl)acrylate], the EC50 lay within 1000 to 10000 nM.

In turn, `COC(=O)/C=C/c1cccc(N(Cc2ccc(-c3ccc4ncoc4c3)cc2)C(=O)C2CCCCC2)c1` [75.12, (E)-Methyl 3-(3-(N-(4-(benzo[d]oxazol-6-yl)benzyl)cyclohexanecarboxamido)phenyl) acrylate] came in with an EC50 of 1000 to 10000 nM.

In turn, `COC(=O)/C=C/c1cccc(N(Cc2ccc(-c3ccc(N(C)C)cc3)cc2)C(=O)c2ccc(OCCN3CCOCC3)cc2)c1` [13.12, (E)-Methyl 3-(3-(N-((4′-(dimethylamino)-[1,1′-biphenyl]-4-yl)methyl)-4-(2-morpholinoethoxy)benzamido)phenyl)acrylate] had an EC50 of 1000 to 10000 nM.

In the case of `COC(=O)/C=C/c1cccc(N(Cc2ccc(-c3ccc4c(c3)OCO4)cc2)C(=O)C2CCCCC2)c1` [62.9, (E)-Methyl 3-(3-(N-(4-(benzo[d][1,3]dioxol-5-yl)benzyl)cyclohexanecarboxamido)phenyl) acrylate], the EC50 was at most 1000 nM.

`COC(=O)/C=C/c1cccc(N(Cc2ccc(-c3ccc(N(C)C)cc3)cc2)C(=O)c2ccc(F)c(F)c2)c1` [13.1, (E)-Methyl 3-(3-(N-((4′-(dimethylamino)-[1,1′-biphenyl]-4-yl)methyl)-3,4-difluorobenzamido)phenyl)acrylate]: the EC50 lay in the range of 1000 to 10000 nM.

`COC(=O)/C=C/c1cccc(N(Cc2ccc(-c3ccc(N(C)C)cc3)cc2)C(=O)c2cccc(OC)c2)c1` [13.10, (E)-Methyl 3-(3-(N-((4′-(dimethylamino)-[1,1′-biphenyl]-4-yl)methyl)-3-methoxybenzamido)phenyl)acrylate]: the EC50 fell in the range of 1000 to 10000 nM.

In turn, `COC(=O)/C=C/c1cccc(N(Cc2ccc(-c3ccc4cnsc4c3)cc2)C(=O)C2CCCCC2)c1` [75.16, (E)-Methyl 3-(3-(N-(4-(benzo[d]isothiazol-6-yl)benzyl)cyclohexanecarboxamido)phenyl) acrylate] returned an EC50 of 1000 to 10000 nM.

One may read the EC50 as the concentration giving half of the maximal effect. A lower EC50 goes with a more potent agent.
